As a reminder, the MIC is the least concentration at which growth counts as inhibited.

Assay in all cases: MIC of antibiotics, antibiotic resistance profile of Salmonella enterica isolates
Holding throughout (assay type): cell-based

Assay [1] deals with Salmonella enterica serotype Heidelberg isolates. Here is the method: (§1) The Salmonella enterica isolates were also typed by their antibiotic resistance and Pulsed-Field Gel Electrophoresis (PFGE) patterns. The isolates'=0 resistance profile, a common and obviously important phenotypic assay, was determined for twenty antibiotics commonly used in veterinary medicine to control Salmonella infections. PFGE is the most common and widely accepted genotypic method currently in use. The PFGE patterns were analyzed by statistical pattern recognition to produce a dendrogram in which similar gel patterns are clustered so that they appear in or near the same branch of a similarity “tree.” Then the two types of mass spectra for the same twenty-nine samples, under several variations, were also evaluated by pattern recognition.

In assay [2] the test system is Salmonella enterica serotype Muenster isolates.
Source text: (§2) To identify charge state of each ion cluster, we performed the following analyses on twenty-nine Salmonella enterica isolates (21 of serotype Heidelberg, 3 Anatum, 3 Worthington and 2 Muenster) from a turkey production environment. From the high mass end of the spectrum, we divided each ion peak by 2 or 3, look there for a corresponding peak. Ions at small integer dividends are then tabulated together with the largest, assumed to be a+1 charge state. Based on the assigned charge state, sum intensities (in the raw spectra) arising from nearby adducts or losses were calculated at their charge-state-predicted interval. The total around each same-charge-state cluster were added to the total for the same biomarker at its other identified charge states. Spectra were smoothed, the background was subtracted and then peaks were detected. Deconvolution was based on peaks at least 3% intensity of the base peak.
as §1

Assay [3] deals with Salmonella enterica serotype Worthington isolates.
Source text: as §2, §1

Assay [4] concerns Salmonella enterica serotype Anatum isolates.
Source text: as §2, §1

Setting [5] is: 6th of 29 isolates (ID cell blank).
Where [6] appears, read: 9th of 29 isolates (ID cell blank).
Setting [7] is: 29th of 29 isolates (ID printed 9).
Where [8] appears, read: 7th of 29 isolates (ID cell blank).
Where [9] appears, read: 18th of 29 isolates (ID printed 8).
The mark [10] stands for this setting: 22nd of 29 isolates (ID printed 2).
[11] abbreviates: 1st of 29 isolates (ID cell blank), turkey production environment.
[12] abbreviates: 2nd of 29 isolates (ID cell blank).
The mark [13] stands for this setting: 3rd of 29 isolates (ID cell blank).

`CC[C@H]1OC(=O)[C@H](C)[C@@H](O[C@H]2C[C@@](C)(OC)[C@@H](O)[C@H](C)O2)[C@H](C)[C@@H](O[C@@H]2O[C@H](C)C[C@H](N(C)C)[C@H]2O)[C@](C)(O)C[C@@H](C)C(=O)[C@H](C)[C@@H](O)[C@]1(C)O` [Er]: the MIC was 512 µg/mL in assay [1] (4th of 29 isolates (ID cell blank)); greater than 512 µg/mL in assay [1] (setting [5]); 512 µg/mL in assay [1] (8th of 29 isolates (ID cell blank)); 512 µg/mL in assay [1] (setting [6]); 512 µg/mL in assay [1] (10th of 29 isolates (ID 0)); 512 µg/mL in assay [1] (11th of 29 isolates (ID 1)). For the same compound, the minimum inhibitory concentration (MIC) in assay [1] (13th of 29 isolates (ID 3)) is 512 µg/mL; in assay [1] (14th of 29 isolates (ID 4)) it was 512 µg/mL; in assay [1] (15th of 29 isolates (ID 5)) it was 512 µg/mL; in assay [1] (20th of 29 isolates (ID 0)), 512 µg/mL; in assay [2] (28th of 29 isolates (ID printed 8)), 512 µg/mL; in assay [2] (setting [7]), 32 µg/mL. Besides, the MIC in assay [3] (26th of 29 isolates (ID 6)) was found to be 64 µg/mL.
On to `CN[C@@H]1[C@H](O)[C@H](NC)[C@H]2O[C@@]3(O)C(=O)C[C@@H](C)O[C@H]3O[C@@H]2[C@H]1O` [Spt], for which the minimal inhibitory concentration (MIC) in assay [1] (setting [5]), in assay [1] (setting [8]), in assay [1] (setting [6]), in assay [1] (10th of 29 isolates (ID 0)), in assay [1] (11th of 29 isolates (ID 1)) and in assay [1] (13th of 29 isolates (ID 3)) was greater than 512 µg/mL each time. For the same compound, the minimum inhibitory concentration (MIC) in assay [1] (14th of 29 isolates (ID 4)), in assay [1] (15th of 29 isolates (ID 5)), in assay [1] (16th of 29 isolates (ID 6)), in assay [1] (setting [9]), in assay [1] (20th of 29 isolates (ID 0)) and in assay [1] (21st of 29 isolates (ID 1)) was greater than 512 µg/mL throughout. The MIC in assay [1] (setting [10]) and in assay [1] (24th of 29 isolates (ID 4)) was greater than 512 µg/mL in each case.
Turning to `CN[C@@H]1[C@H](O[C@H]2[C@H](O[C@H]3[C@H](O)[C@@H](O)[C@H](N=C(N)N)[C@@H](O)[C@@H]3N=C(N)N)O[C@@H](C)[C@]2(O)C=O)O[C@@H](CO)[C@H](O)[C@H]1O` [St], the MIC in assay [1] (setting [5]), in assay [1] (setting [8]), in assay [1] (setting [6]), in assay [1] (10th of 29 isolates (ID 0)), in assay [1] (11th of 29 isolates (ID 1)) and in assay [1] (13th of 29 isolates (ID 3)) was greater than 256 µg/mL in each case. Also, the MIC in assay [1] (14th of 29 isolates (ID 4)), in assay [1] (15th of 29 isolates (ID 5)), in assay [1] (16th of 29 isolates (ID 6)), in assay [1] (setting [9]), in assay [1] (20th of 29 isolates (ID 0)) and in assay [1] (21st of 29 isolates (ID 1)) was greater than 256 µg/mL each time. Further, the MIC in assay [1] (setting [10]) is greater than 256 µg/mL; in assay [1] (24th of 29 isolates (ID 4)), greater than 256 µg/mL; in assay [4] (setting [11]), 256 µg/mL; in assay [4] (setting [12]), 256 µg/mL; in assay [4] (setting [13]) it was 256 µg/mL; in assay [2] (setting [7]) it was greater than 256 µg/mL.
Turning to `CN(C)C1C(O)=C(C(N)=O)C(=O)C2(O)C(O)=C3C(=O)c4c(O)cccc4C(C)(O)C3CC12` (stereo not drawn) [Te], the MIC in assay [1] (5th of 29 isolates (ID cell blank)) was found to be 128 µg/mL; in assay [1] (10th of 29 isolates (ID 0)) it was 256 µg/mL; in assay [1] (24th of 29 isolates (ID 4)), 256 µg/mL; in assay [4] (setting [11]), 512 µg/mL; in assay [4] (setting [12]), 256 µg/mL; in assay [4] (setting [13]) it was 256 µg/mL. Besides, the minimum inhibitory concentration (MIC) in assay [3] (17th of 29 isolates (ID printed 7)), in assay [3] (26th of 29 isolates (ID 6)) and in assay [3] (27th of 29 isolates (ID printed 7)) was 32 µg/mL each time.
